PMC12263422, “Cryo-EM structure of the human THIK-1 K2P K^+ channel reveals a lower Y gate regulated by lipids and anesthetics” (Nature Structural & Molecular Biology, 2025)
Where “and” joins values, the source holds several entries; their conditions need not be identical. Equal values may be shown once.

Target: T1, human K2P12.1 THIK-2 (THIK-2*) (Homo sapiens, UniProt Q9HB15, R11A/R12A/R14A/R15A/R16A)
T1 construct: expressed in transfected cells; host or cells: Xenopus oocytes (mRNA injection)
T1 sequence (Q9HB15 1-430 R11A/R12A/R14A/R15A/R16A): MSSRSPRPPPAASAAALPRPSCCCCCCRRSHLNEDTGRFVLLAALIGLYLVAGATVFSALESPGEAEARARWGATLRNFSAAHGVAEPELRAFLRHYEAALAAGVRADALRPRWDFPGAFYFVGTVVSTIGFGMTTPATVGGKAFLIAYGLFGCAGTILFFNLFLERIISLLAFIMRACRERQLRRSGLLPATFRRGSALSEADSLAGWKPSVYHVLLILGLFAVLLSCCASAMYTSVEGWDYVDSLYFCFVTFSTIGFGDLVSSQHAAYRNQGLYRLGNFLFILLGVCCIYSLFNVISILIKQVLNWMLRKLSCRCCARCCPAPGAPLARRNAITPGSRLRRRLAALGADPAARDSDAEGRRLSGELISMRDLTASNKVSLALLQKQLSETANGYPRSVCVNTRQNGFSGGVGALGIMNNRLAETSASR
Assay: Inside-out excised patch recordings, oocytes, THIK-2* (ER-retention mutant)
Format: cell-based
Details: for Normalized currents: THIK-2* (unstimulated)
Excerpt: Human K2P13.1 THIK-1 (GenBank accession number: NM_022054) and human K2P12.1 THIK-2 (NM_022055.1) were used in this study. For functional expression studies, the respective K^+ channel subtype coding sequences were subcloned into the oocyte expression vector pSGEM or the dual-purpose expression vector pFAW[41] and verified by sequencing. All mutant channels were obtained by site-directed mutagenesis and verified by sequencing. To increase surface expression and macroscopic currents, measurements of THIK-2 channels used a mutated ER retention motif, (R11A R12A R14A R15A R16A; THIK-2*)[20]. Vector DNA was linearized with NheI or MluI, and mRNA was synthesized in vitro using the SP6 or T7 AmpliCap Max High Yield Message Maker Kit (Cellscript, USA) or HiScribe T7 ARCA mRNA Kit (New England Biolabs).
Two-electrode voltage–clamp (TEVC) studies were performed in Xenopus oocytes. All animal use conformed to the Guide for the Care and Use of Laboratory Animals (NIH Publication 85–23), and all experiments using Xenopus toads were approved by the local ethics panels. Oocytes were stored at 17 °C in ND96 recording solution composed of (in mM): 96 NaCl, 2 KCl, 1.8 CaCl2, 1 MgCl2, 5 HEPES (pH 7.5 adjusted with NaOH and HCl), supplemented with Na-pyruvate (275 mg L^–1), theophylline (90 mg L^–1) and gentamicin (50 mg L^–1). Oocytes were injected with 1 ng mRNA for WT or mutant channels, and were incubated for 24–48 h at 17 °C. Two-electrode voltage clamp recordings were then performed as previously described[42],[43]. For macroscopic patch–clamp measurements, oocytes were obtained as described above incubated at 17 °C in a solution containing (mM): 54 NaCl, 30 KCl, 2.4 NaHCO3, 0.82 MgSO4 ×7 H2O, 0.41 CaCl2, 0.33 Ca(NO3)2 ×4 H2O and 7.5 TRIS (pH 7.4 adjusted with NaOH and HCl) for 1–4 days before use. Excised patch recordings in inside-out configuration conditions were performed at room temperature. Patch pipettes were made from thick-walled borosilicate glass GB 200TF-8P (Science Products), had resistances of 0.2–0.5 MΩ (tip diameter, 10–25 µm) and filled with a pipette solution (in mM): 120 KCl, 10 HEPES and 3.6 CaCl2 (pH 7.4 adjusted with KOH and HCl). Intracellular bath solutions and compounds were applied to the cytoplasmic side of excised patches for the various K^+ channels through a gravity flow multi-barrel pipette system. The intracellular solution had the following composition (in mM): 120 KCl, 10 HEPES, 2 EGTA and 1 pyrophosphate (pH adjusted with KOH and HCl). Currents were recorded with an EPC10 amplifier (HEKA Electronics) and sampled at 10 kHz or higher, with filtering set to 3 kHz (–3 dB) or higher, as appropriate for sampling rate. For measurements of GPCR activation, whole-cell currents were recorded for THIK-1 in transiently transfected HEK-293 cells. Cells were stimulated by a ramp protocol between −100 and +60 mV (holding potential, −80 mV). The pipette solution was composed of (in mM): 140 KCl, 2 MgCl2, 1 CaCl2, 2.5 EGTA and 10 HEPES (pH 7.3 adjusted with KOH and HCl). The extracellular bath solution had the following composition (in mM): 135 NaCl, 5 KCl, 2 MgCl2, 2 CaCl2, 10 glucose and 10 HEPES pH (pH 7.3 adjusted with NaOH and HCl). Oxotremorine M (Oxo-M) was added to extracellular bath solution to obtain the final concentration. Single-channel currents were recorded with an Axopatch 200B amplifier through a Digidata 1440A digitizer (Molecular Devices). Data were filtered at 2 kHz and recorded at a 200-kHz sampling rate with the program Clampex (Molecular Devices). Pipette solution and bath solution for cell-attached recordings contained (in mM): 140 KCl, 2 MgCl2, 1 CaCl2 and 10 HEPES (pH 7.4 adjusted with KOH and HCl). For inside-out recordings, the bath solution contained (in mM): 140 KCl, 2 MgCl2, 1 CaCl2 and 10 HEPES (pH 7.2 adjusted with KOH and HCl). All experiments were conducted at room temperature. […]

[1] = THIK-2* WT (unstimulated), mean
[2] = THIK-2* WT, individual recordings

SMILES: CCCCC[N+](CCCCC)(CCCCC)CCCCC [TPenA, tetrapentylammonium]
- Normalized currents (0.1 µM TPenA): 0.99
- Normalized currents (1 µM TPenA): 0.98
- Normalized currents (10 µM TPenA): 0.94
- Normalized currents (100 µM TPenA): 0.71
- Normalized currents (1000 µM TPenA): 0.41
- Normalized currents (5000 µM TPenA): 0.35
- τ of 1 mM TPenA block [1]: 3.83 s
- τ of 1 mM TPenA release [1]: 3.40 s
- τ of 1 mM TPenA block [2]: 5.710 s and 3.800 s and 2.660 s and 5.630 s and 4.260 s and 2.170 s and 2.560 s
- τ of 1 mM TPenA release [2]: 4.580 s and 3.250 s and 3.550 s and 3.310 s and 3.680 s and 2.030 s
